The test system of assay [1] is C. elegans. Put plainly: Lifespan of C. elegans fed on E. coli cultured with dapsone. In kind it is in vivo, Caenorhabditis elegans. Set-up: Mean lifespan (Mean ± SE): unit not given beside the values. On the procedure: In order to identify the effect of dapsone on the extending of lifespan, the experiment was performed in the following order. At this time, since dapsone is not a water-soluble material, E. coli was cultured in the medium including dapsone and then was used as a feed for C. elegans. […] generation, and the experiment was performed as follows under the condition of 20° C. in order to provide the optimal growth environment: 1) A parent C. elegans of L4 stage was transferred to the medium containing dapsone and PABA, and the progeny of first generation was transferred to the new medium after four days to lay an egg for 4 to 5 hours. […] C. elegans, which […], was excluded from the statistical analysis. […] The significant difference of statistical average lifespan used Log-rank test.

Assay [2] deals with C. elegans. Put plainly: Oxidative stress resistance test, survival in 250 mM paraquat. Type of assay: in vivo. The conditions noted are these: PQ 250 mM; compared with control C. elegans; FIG. 12. On the procedure: C. elegans at 5 days after administrating dapsone for second generations was used for testing an oxidative stress resistance by dapsone. 250 mM of paraquat was dissolved in M9 solution and then 20 C. elegans was immersed into the above solution. The number of living C. elegans was measured per an hour.

Several values for one entry are separate records, joined by “and”; a condition that tells them apart may be missing. Equal entries are not always repeated.

For `Nc1ccc(S(=O)(=O)c2ccc(N)cc2)cc1` [DDS, 4,4′-diaminodiphenylsulfone], the “average lifespan and maximum lifespan compared with the control” value in the assay with C. elegans [1] (DDS after L4-stage and during the whole life, FIG. 3A, B) was “significantly increased”. Besides, the “Mean lifespan (Mean ± SE)” value is 23.04 ± 0.7 and 34.26 ± 0.8 and 23.76 ± 0.6 and 18.87 ± 0.4 in the assay on C. elegans [1] (strain N2, OP50 + PABA + DDS (2 mM) after L4 stage, Figure 1B, four trials); 23.07 ± 0.5 and 24.31 ± 0.6 with C. elegans [1] (strain N2, OP50 + PABA + DDS (2 mM) in the whole life, Figure 1A, two trials); 23.72 ± 0.7 and 19.74 ± 0.6 in the assay with C. elegans [1] (strain N2, OP50 + PABA + DDS, Figure 3F, two trials); 22.03 ± 0.6 in the assay with C. elegans [1] (strain N2, feeding OP50 + 0.5 mM DDS, Figure S7); 22.20 ± 0.6 in the assay on C. elegans [1] (strain N2, feeding OP50 + 1 mM DDS, Figure S7); 16.90 ± 0.3 and 17.43 ± 0.4 and 17.87 ± 0.4 in the assay on C. elegans [1] (strain N2, feeding folP + DDS (bacteria lacking folP), Figure S2, three trials). Further, the “Mean lifespan (Mean ± SE)” value in the assay on C. elegans [1] (strain daf-16(cf1038), OP50 + PABA + DDS (2 mM), Figure 2A, two trials) is 15.69 ± 0.5 and 17.40 ± 0.3; in the assay on C. elegans [1] (strain pyk-1(ok1754), OP50 + PABA + DDS, Figure 3F, two trials), 21.92 ± 0.8 and 23.37 ± 0.6. In addition, the “survival rate in NGM liquid medium containing PQ” value with C. elegans [2] was “significantly increased”.

The values above are taken from US20110152379A1, “COMPOSITION FOR CONTROL OF AGING AND/OR EXTENSION OF LIFE, CONTAINING DAPSONE AS ACTIVE INGREDIENT” (priority 2008, published 2011).
